Measured values published in patent US20250327028A1, “ENGINEERED PLATELETS AS TARGETED PROTEIN DEGRADERS” (Wisconsin Alumni Research Foundation, priority 2024, published 2025).

How the values were obtained:
4T1-Luc tumors [1] = experiment: Flow cytometry and ELISA of infiltrated effector T cells and cytokines within tumor tissues of post-surgery mice; format: in vivo, BALB/c mice; conditions: flow cytometry, two weeks after last treatment
Procedure: Flow cytometry analysis and ELISA assay were adopted to study the infiltrated effector T cells and immune-associated cytokines within the tumor tissues. The same post-surgery mouse models were established and randomly divided into 4 groups (n=5), which were i.v. injected with PBS, nPLT (2×10^8 platelets), eDePLT (2×10^8 platelets), and free eHAC (5 mg/kg) every three days for four times starting from day 1 post-surgery. After 2 weeks of the last treatment, the tumor tissues were isolated, weighed, and cut into small pieces, which were then soaked in 2 mL blank medium containing collagenase (MilliporeSigma/C5138) and incubated at 37° C. for 1 h. The cell suspensions were centrifugated at 1200 rpm for 3 min, and 200 μL of the corresponding supernatants were collected and subjected to ELISA analysis for IFN-γ and TNF-α. The single cell suspensions were collected through filtration of the suspension over 40 µm nylon cell strainer (Falcon®/352340). For the staining, 1×10^6 cells for each sample were collected and incubated with 100 μL of PBS containing PE anti-mouse CD3 antibody and APC anti-mouse CD8a antibody in the dark for 30 min at 4° C. Then, the samples were centrifuged at 2,000 rpm for 5 min at room temperature. The pellets were resuspended in PBS and subjected to the flow cytometry analysis.

PD-L1 [2] = target: T1, PD-L1 (Homo sapiens, UniProt Q9NZQ7); experiment: PD-L1 degradation in HSP90α-KO MDA-MB-231 cells; format: cell-based
T1 construct: endogenous in cells; host or cells: HSP90α-KO MDA-MB-231
From the text: (§1) Immunoblot analysis: Immunoblot analysis was used to evaluate the expression of BRD4, HSP90, HSP90a, and PD-L1 in 4T1, WT MDA-MB-231, HSP90α-KO MDA-MB-231 or PEA-10 cells after various treatments and also served as the detection method for IP or co-IP experiments. The procedures for preparing IP or co-IP samples were indicated in the relevant experimental parts.
(§2) Sample preparation for various cancer cells after free HAC treatment: Various cells, including 4T1, WT MDA-MB-231, HSP90α-KO MDA-MB-231, or PEA-10 cells, were seeded in 6-well culture plates with a density of 5×10^4 cells in each well and cultured for 24 h. Then, if HAI pretreatment was performed, the cells were incubated in the HAI-containing blank medium at different concentrations for 2 h and washed with PBS twice before the following treatments. […]
(§3) General procedures for immunoblot analysis: After a 30-min lysis, the lysates were centrifuged at 10,000 g for 10 minutes at 4° C., and the corresponding supernatants were collected, followed by quantification of the total proteins in the supernatant through the BCA assay. […] Finally, the bands were treated with electrochemiluminescence (ECL) western blot substrate, detected by the iBright™ imaging system and quantified with ImageJ software. […]

PD-L1 [3] = target: T1, PD-L1; experiment: PD-L1 distribution in WT MDA-MB-231 cells (fluorescence observation); format: cell-based; conditions: 2 h, compared to PU-H71 plus BMS-1166
Procedure: PD-L1 distribution in WT MDA-MB-231 cells: 5×10^4 WT MDA-MB-231 cells were seeded in a confocal dish and cultured for 24 h at 37° C. Then, the cells were treated with eHAC or the combination of PU-H71 plus BMS-1166 at 0.5 μM for 2 h. Subsequently, the cells were washed with PBS twice and fixed with 4% PFA at room temperature for 20 min. The following procedures were the same as the above colocalization observation except for replacing the anti-LAMP1 antibody with rabbit anti-PD-L1 antibody (Invitrogen/PA5-20343).

PD-L1 [4] = target: T2, PD-L1 (Mus musculus, UniProt Q9EP73); experiment: Immunoblot analysis of PD-L1 degradation in 4T1 cells after free HAC treatment; format: cell-based, murine
T2 construct: endogenous in cells; host or cells: 4T1
From the text: as §1
Sample preparation for various cancer cells after free HAC treatment: Various cells, including 4T1, WT MDA-MB-231, HSP90α-KO MDA-MB-231, or PEA-10 cells, were seeded in 6-well culture plates with a density of 5×10^4 cells in each well and cultured for 24 h. Then, if HAI pretreatment was performed, the cells were incubated in the HAI-containing blank medium at different concentrations for 2 h and washed with PBS twice before the following treatments. The medium in the corresponding wells was replaced with 1 mL of blank medium containing the DMSO vehicle, HACs, or the combinations of various free ligands at the predetermined concentrations. After incubation for the indicated time points, cells were washed with PBS and lysed on ice with the relevant lysis buffer containing PMSF (1 mM) and the phosphatase inhibitor cocktail for 30 min. As for the conditioned medium (CM), the culturing complete medium of the corresponding cancer cells in each well was collected after 24-h incubation and subjected to centrifugation at 2000 rpm for 5 min to obtain the supernatant. The filtrate of the supernatants was collected following filtration over a 0.45 μm filter, serving as the CM. Regarding the cell samples for BRD4 detection, the lysis buffer containing HEPES-KOH (pH=7.5, 10 mM), NaCl (500 mM), EDTA (5 mM), NP-40 (1%), and SDS (0.1%) was used with the indicated PMSF and phosphatase inhibitor cocktail. As for PD-L1 detection, RIPA buffer (Thermo Fisher Scientific/J63306.AP) was used with the indicated PMSF and phosphatase inhibitor cocktail.
as §3, with “assay. Afterward, the proteins in the supernatant were mixed with the loading buffer and heated at 95° C. for 15 min. Equal amounts of proteins from different samples ([…]) were loaded into the Bis-Tris gel formulated with Bis-Tis buffer, 30% acrylamide/Bis, 10% ammonium persulfate (APS) solution, and TEMED.” for “assay.”

PD-L1 [5] = target: T2, PD-L1; experiment: Immunoblot analysis of PD-L1 expression in LRP-1-deficient PEA-10 cells; format: cell-based, murine; conditions: PEA-10 (LRP-1-deficient), various concentrations, 8 h, CM
From the text: as §1, §2, §3

4T1-Luc tumors [6] = experiment: Treatment efficacy in post-surgery BALB/c mice with orthotopic 4T1-Luc breast cancer; format: in vivo; conditions: 2×10^8 platelets i.v. or free HAC 5 mg/kg i.p., every third day for 4 times
From the text: Evaluation of treatment efficacy and biosafety in post-surgical 4T1 tumor-bearing mice: Post-surgery BALB/c mice with orthotopic 4T1-Luc-breast cancer were used to evaluate the tumor recurrence, metastasis, and biosafety profiles after iDePLT or eDePLT treatments. The treatment efficacy of iDePLT was also studied in the post-surgery NSG mice with orthotopic patient-derived xenografts (PDX) breast cancer.
Establishment of post-surgery models with BALB/c mice: 1×10^6 4T1-Luc cells were suspended in a PBS containing 50% Matrigel® (Corning®/354234). Female 8-week-old BALB/c mice were anesthetized and injected with 50 μL of the cell suspensions into the fourth mammary gland fat pads. After the tumor volumes reached about 100-200 mm^3, the tumor-bearing mice were anesthetized and placed under the microscope, followed by surgical resection to totally remove the visible tumor tissues. Following wound closure, the post-surgery mice were randomly assigned to different treatment groups.
Evaluation of treatment efficacy and biosafety in post-surgery BALB/c mice: As for the treatments with platelets, the platelets were freshly isolated from the healthy female BALB/c mice and suspended in PBS for intravenous (i.v.) injection after the necessary engineering. The free iHAC and eHAC were intraperitoneally (i.p.) injected after dispersing in the formulation of 10% DMSO, 40% polyethylene glycol 300 (PEG300), 5% Tween TM-80, and 45% saline. From the same day after surgery, the mice were anesthetized and i.p. injected with D-luciferin potassium salt (150 mg/kg) in 100 μL in PBS. The bioluminescence of post-surgery mice in each group was detected by Perkin Elmer IVIS every five days from the day of surgery, and intensity was analyzed by Living Image Software v.4.3.1. […] During the treatment course, the body weight of each post-surgery mouse was monitored daily. […]

T2 sequence (Q9EP73 19-290): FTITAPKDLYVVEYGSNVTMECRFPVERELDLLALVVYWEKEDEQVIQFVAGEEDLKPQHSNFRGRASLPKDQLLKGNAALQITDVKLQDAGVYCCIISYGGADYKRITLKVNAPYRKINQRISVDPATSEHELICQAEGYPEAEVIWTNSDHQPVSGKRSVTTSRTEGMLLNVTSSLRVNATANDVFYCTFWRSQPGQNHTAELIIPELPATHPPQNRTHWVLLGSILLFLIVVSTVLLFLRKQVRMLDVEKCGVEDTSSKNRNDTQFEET
T1 sequence (Q9NZQ7 19-290): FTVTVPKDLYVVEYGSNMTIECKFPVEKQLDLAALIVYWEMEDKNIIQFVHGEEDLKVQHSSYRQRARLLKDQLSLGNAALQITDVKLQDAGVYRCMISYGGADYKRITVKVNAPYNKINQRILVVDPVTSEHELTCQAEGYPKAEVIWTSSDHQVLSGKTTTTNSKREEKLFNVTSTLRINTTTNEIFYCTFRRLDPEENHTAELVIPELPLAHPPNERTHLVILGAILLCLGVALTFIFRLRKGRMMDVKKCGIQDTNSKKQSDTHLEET

**Q.** What does the source list for `Cc1c(COc2cc(OCc3cccc(C#N)c3)c(CN3C[C@H](O)C[C@@H]3C(=O)NCCOCc3cn(CCCC(=O)N(CC#N)S(=O)(=O)c4ccc(C(=O)NCCCn5c(Sc6cc7c(cc6I)OCO7)nc6c(N)ncnc65)cc4)nn3)cc2Cl)cccc1-c1ccc2c(c1)OCCO2` [eHAC, (2R,4R)—N-(2-((1-(4-((4-((3-(6-amino-8-((6-iodobenzo[d][1,3]dioxol-5-yl)thio)-9H-purin-9-yl)propyl)carbamoyl)-N-(cyanomethyl)phenyl)sulfonamido)-4-oxobutyl)-1H-1,2,3-triazol-4-yl)methoxy)ethyl)-1-(5-chloro-2-((3-cyanobenzyl)oxy)-4-((3-(2,3-dihydrobenzo[b][1,4]dioxin-6-yl)-2-methylbenzyl)oxy)benzyl)-4-hydroxypyrrolidine-2-carboxamide]?
**A.** infiltration / ratio of CD3+CD8+ T cells in tumor tissues (4T1-Luc tumors [1]): slightly elevated the ratio of CD3^+CD8^+ T cells; PD-L1 degradation potency (PD-L1 [2]): considerably compromised; PD-L1 distribution (PD-L1 [3]): rapidly aggregated into punctate structures and moved towards cytosol; PD-L1 expression in presence of lysosome degradation inhibitor leupeptin (PD-L1 [4]; 4T1 cells, 5 μM, 8 h): rescue effect on PD-L1 expression; PD-L1 expression, eHAC dispersed in blank medium (BM) (PD-L1 [4]; 4T1 cells, blank medium): just slightly reduced the PD-L1 expression within 12 h; PD-L1 levels, eHAC suspended in conditioned medium (CM) (PD-L1 [4]; 4T1 cells, conditioned medium, same time points): could efficiently downregulate PD-L1 levels; time and concentration dependence of PD-L1 reduction (PD-L1 [4]; conditioned medium): in a time- and concentration-dependent manner; PD-L1 degradation (PD-L1 [5]): failed to induce obvious PD-L1 degradation; tumor recurrence at the surgical site (bioluminescence) (4T1-Luc tumors [6]): same severe relapse
